According to patent publication US20250195448A1, “CELL TYPE SELECTIVE DELIVERY OF EXOSOME CARGO USING NOTCH LIGAND-RECEPTOR SYSTEM” (Northwestern University, priority 2023, published 2025):
Entries after “also recorded” stand apart in the source; their conditions may differ.

Tests used:
[1] = tested on: Alix; assay: Alix phosphorylation in Mg^2+-free glycine-treated neurons (IP of Alix, WB p-S/T); assay type: cell-based, rat; settings: for effect on Mg^2+-free glycine-induced Alix phosphorylation: H89 20 μM, staurosporine 1 μM, APV 50 μM, KN93 10 μM, AIP 1 μM
Experimental: Neurons were pretreated with DMSO (1:1000) or dynasore (80 μM, Sigma-Aldrich, Cat #SML0340) or H89 (20 μM, Sigma-Aldrich, Cat #B1427) or staurosporine (1 μM, Tocris, Cat #1285) or APV (50 μM, Sigma-Aldrich, Cat #A5282) or KN93 (10 μM, Sigma-Aldrich, Cat #K1385) or AIP (1 μM, Anaspec, Cat #AS-64929) for 30 mins at 37° C. in a humidified 5% CO2 atmosphere incubator. Then, neuron culture medium was carefully removed from dishes. The collected medium was then kept at 37° C. in a humidified 5% CO2 atmosphere incubator. The neurons were washed three times with Veh or Mg^2+-free glycine and incubated for 5 min with solutions containing different inhibitors. Then neurons were washed twice with Veh solution, the saved culture medium was returned and maintained in incubator for assigned durations (37° C., 5% CO2).
WedgeWell™ Tris-Glycine Mini Protein Gels (Fisher Scientific, Cat #XP04125BOX, XP04120BOX and XV00100PK20) were used for electrophoresis. After electrophoresis, proteins were transferred onto nitrocellulose membranes (Thermo Fisher, Cat #4500002). For WB, the membranes were blocked with 10% bovine serum albumin (BSA, Jackson immunoResearch laboratories, Cat #001-000-162) in TBST solution (Tris-buffered saline, 0.1% Tween 20) for one hour in room temperature (RT). Then membranes were incubated with primary antibodies in incubation solution (3% BSA in TBST) overnight at 4° C. with mild agitation. Following primary antibodies were used: mouse anti-Alix (1:1000, Cell Signaling Technology, Cat #2171S, RRID: AB_2299455), rabbit anti-Alix (1:1000, Cell Signaling Technology, Cat #18269, RRID: AB_2798796), mouse anti-Tsg101 (1:1000, Santa Cruz Biotechnology, Cat #sc-7964, RRID: AB_671392), mouse anti-CD81 (1:1000, Santa Cruz Biotechnology, Cat #sc-166029, RRID: AB_2275892), rabbit anti-Notch1ICD (1:1000, Abcam, Cat #ab52627, RRID: AB_881725), rabbit anti-Notch2ICD (1:1000, Cell Signaling Technology, Cat #5732S, RRID: AB_10693319), rabbit anti-activated Notch1 (1:1000, Abcam, Cat #ab52301, RRID: AB_881726), rabbit anti-activated Notch2 (1:1000, MyBioSource, Cat #MBS9410510), rabbit anti-Sdcbp (1:1000, Abcam, Cat #ab19903, RRID: AB_445200 and Cell Signaling Technology, Cat #27964), rabbit anti-GM130 (1:1000, Abcam, Cat #ab52649, RRID: AB_880266), rabbit anti-Hes1 (1:1000, Cell Signaling Technology, Cat #11988S, RRID: AB_2728766 and Abcam, Cat #ab71559, RRID: AB_1209570), chicken anti-Tuj1 (1:2000, Novus Biologicals, Cat #NB100-1612, RRID: AB_10000548), rabbit anti-p-S/T (1:1000, Cell Signaling Technology, Cat #9624S, RRID: AB_331817), mouse anti-PSD95 (1:2000, Thermo Fisher Scientific, Cat #MA1-046, RRID: AB_2092361), rabbit anti-PSD95(pS295) (1:1000, Abcam, Cat #ab76108, RRID: AB_1310621), rabbit anti-GAPDH (1:2000, Cell Signaling Technology, Cat #2118, RRID: AB_561053), rabbit anti-GluA1 (1:1000, EMD Millipore, Cat #PC246, RRID: AB_564636) and guinea pig anti-Bassoon (1:1000, Synaptic Systems, Cat #141 318, RRID: AB_2927388). After 3×10 mins intense wash in TBST solution, membranes were incubated with corresponding secondary antibodies for one hour at RT with mild agitation. Following secondary antibodies were used: goat-anti-rabbit poly-HRP (1:2000, Thermo Scientific, Cat #32260), goat-anti-mouse poly-HRP (1:2000, Thermo Scientific, Cat #32230), goat-anti-chicken HRP (1:2000, Abcam, Cat #ab97135) and Goat anti-Guinea Pig poly-HRP (1:2000, Fisher Scientific, Cat #OB6090-05). […] Fiji (NIH) was used for quantification.

[2] = tested on: hippocampal neurons; assay: Mg^2+-free glycine-induced neuronal EV release; assay type: cell-based; settings: for effect on Mg^2+-free glycine-induced EV release: APV 50 μM, H89 20 μM
Experimental: Synaptic NMDARs were activated as previously described^16,63. […] The osmolarity was adjusted to 300-330 mOsm/l). […] The osmolarity was adjusted to 300-330 mOsm/l). […] The EV-containing supernatant was centrifuged at 3000×g for 30 mins at 4° C. to remove residual neurons and large debris. Then, the supernatant was concentrated using a molecular weight cutoff (MWCO) filter (10 KDa, EMD Millipore, Cat #UFC801024) to 0.5 ml. The concentrated solution was then fractionated into 10 fractions (0.5 ml in EV-free PBS, MEDIATECH INC CA, Cat #21-040-CV) using a qE-Voriginal-35 nm SEC column (Izon Science, Cat #SP5-USD) with an automated fraction collector V1 (Izon Science, Cat #AFC-V1). For each experimental group, EVs released from three 60 mm dishes of mouse hippocampal neurons were pooled and enriched by the SEC method as described above. Then take 10 μl of the enriched EVs from each sample and dilute them with 990 μl EV-free PBS. The samples were centrifuged at 2500×g for 15 mins. Mix 0.5 ml of each sample with 0.5 ml incubation solution. Load 70 μl of each mixture to an ExoView Mouse Tetraspanin chip (Nanoview Bioscience, Cat #EV-TETRA-M2) and incubate overnight at RT in dark. The next day, unbound EVs were washed off the chip by five 3-min washes with the solution A. After incubating with the block solution for 1 hr (RT), the chips were incubated with anti-tetraspanin mixture (Included in the kit, anti-CD81, CF® 555, anti-CD9, CF® […] and anti-CD63, CF® 647) for 1 hr on an orbital shaker. The chips were washed with the solution A twice (3 mins each) and the solution B 5 times (3 min each). The chips were then rinsed in MilliQ water to remove excess solution B. Air dry the chips. A NanoView R100 equipment (Nanoview Bioscience) was used to scan the chips. The data was analyzed by ExoView Analyzer 3.1.4 (Nanoview Bioscience). […] Then, neuron culture medium was carefully removed from dishes. […] Then neurons were washed twice with Veh solution, the saved culture medium was returned and maintained in incubator for assigned durations (37° C., 5% CO2).

[3] = tested on: Notch signaling pathway; assay: Pharmacological treatments of neurons, Mg^2+-free glycine-induced Notch activation (WB); assay type: cell-based, rat; settings: 90 mins after treatment; for effect on Mg^2+-free glycine-induced elevation of activated-Notch1, -Notch2 and Hes1 protein levels: APV 50 μM, dynasore 80 μM pretreatment
Experimental: Synaptic NMDARs were activated as previously described^16,63. […] The osmolarity was adjusted to 300-330 mOsm/l). […] The osmolarity was adjusted to 300-330 mOsm/l). […] Then, neuron culture medium was carefully removed from dishes. […] Then neurons were washed twice with Veh solution, the saved culture medium was returned and maintained in incubator for assigned durations (37° C., 5% CO2). Neuron samples were collected and resuspended in a RIPA lysis buffer (50 mM Tris, 150 mM NaCl, 0.1% SDS, 1 mM EDTA, 0.5% sodium deoxycholate, 1% Triton X-100, 1× protease inhibitor cocktail (Thermo Fisher Scientific, Cat #78443), 1× phosphatase inhibitor (Thermo Fisher Scientific, Cat #78420), pH 7.4). The resuspended lysates were vortexed for 20 s and then incubated on ice for 30 min and centrifuged at 16,200 g for 15 mins. The supernatants were mixed with 4×SDS loading buffer at a 3:1 ratio. The mixtures were boiled at 95° C. for 5 mins. […] Fiji (NIH) was used for quantification.

[4] = tested on: neurons; settings: 30 mins treatment
Experimental: An aliquot of each sample (100 l) was transferred from the culture wells to the wells of a 96-well plate and mixed with 100 μl of the reaction solution provided by the kit. Optical density was measured at 492 nm 45 min later using a Synergy HTX multi-mode microplate reader (Biotek). Background absorbance at 620 nm was subtracted. The maximal releasable LDH in each well was then obtained by a 15 min incubation with 1% Triton X-100 at the end of each experiment.

[5] = tested on: rat hippocampal neurons
Experimental: DIV 18 rat hippocampal neurons in 6-well plate (cover glasses, Carolina, Cat #633037, 1.5×10^6 cells per well) were used for this assay. At DIV 16, neurons were co-transfected with either 1 μg mCherry+GFP or 1 μg mCherry-Alix+GFP plasmids using HilyMax (Dojindo Cat #H357-15). Two days later, the neurons were used for live cell imaging analysis. Neurons (put in a magnetic imaging chamber, Warner Instruments, Cat #QR-40L) were rinsed three times with warm (37° C.) extracellular solution (pH 7.4, 150 mM NaCl, 5 mM KCl, 1 mM MgCl2, 2 mM CaCl2), 10 mM glucose, 10 mM HEPES). Then the neurons were placed into a heating stage (37° C.) supplied with a humidified 5% CO2 atmosphere and were incubated with this solution for 20 mins in a humidified 5% CO2 atmosphere incubator at 37° C. […] Then the extracellular solution was put back. Images were captured using a Nikon A1R+ confocal laser microscope and a 100× oil objective lens (also was kept at 37° C. during recording). […] The data was imported to Fiji (NIH) for further analysis.

[6] = tested on: PSD95
Experimental: WedgeWell™ Tris-Glycine Mini Protein Gels (Fisher Scientific, Cat #XP04125BOX, XP04120BOX and XV00100PK20) were used for electrophoresis. After electrophoresis, proteins were transferred onto nitrocellulose membranes (Thermo Fisher, Cat #4500002). For WB, the membranes were blocked with 10% bovine serum albumin (BSA, Jackson immunoResearch laboratories, Cat #001-000-162) in TBST solution (Tris-buffered saline, 0.1% Tween 20) for one hour in room temperature (RT). Then membranes were incubated with primary antibodies in incubation solution (3% BSA in TBST) overnight at 4° C. with mild agitation. […] Fiji (NIH) was used for quantification.

[7] = tested on: Notch target genes; settings: 60 mins after treatment

| Compound | effect on Mg^2+-free glycine-induced Alix phosphorylation [1] | effect on Mg^2+-free glycine-induced EV release [2] | effect on Mg^2+-free glycine-induced elevation of activated-Notch1, -Notch2 and Hes1 protein levels [3] | further results |
| --- | --- | --- | --- | --- |
| N[C@H](CCCP(=O)(O)O)C(=O)O [APV, D-2-amino-5-phosphonovalerate] | blocked; also recorded: significantly reduced | suppress; also recorded: blocked | inhibited |  |
| O=C(N/N=C/c1ccc(O)c(O)c1)c1cc2ccccc2cc1O [Dynasore] |  |  | blocked elevation | effect on Mg^2+-free glycine-induced elevation of activated-Notch1, -Notch2 and Hes1 protein levels ([3]; listed as dynasore): inhibited |
| O=S(=O)(NCCNC/C=C/c1ccc(Br)cc1)c1cccc2cnccc12 [H89] | significantly inhibit; also recorded: inhibited | suppress; also recorded: blocked |  |  |
| COc1ccc(S(=O)(=O)N(CCO)c2ccccc2CN(C)C/C=C/c2ccc(Cl)cc2)cc1 [KN93] | failed to block |  |  |  |
| NCC(=O)O [Mg^2+-free glycine, glycine] |  |  |  | plasma membrane rapture (LDH) [4]: does not cause; Alix phosphorylation after Mg^2+-free glycine stimulation [1]: leads to Alix phosphorylation; dendritic spine enlargement [5]: enlarged dendritic spines; neuronal EV biogenesis and release ([2]; Mg^2+-free glycine solution, 30 mins): triggered; phosphorylation of Ser295 (pS295) in PSD95 [6]: induces; Notch target gene expression [7]: activated; levels of activated-Notch1, -Notch2 and Hes1 after Mg^2+-free glycine treatment ([3]; WB): elevated |
| CN[C@@H]1C[C@H]2O[C@@](C)([C@@H]1OC)n1c3ccccc3c3c4c(c5c6ccccc6n2c5c31)C(=O)NC4 [Stau, staurosporine] | not significant |  |  |  |
